Assay results taken from patent publication US12551573B2, “Compositions and methods for the targeting of PCSK9” (Scribe Therapeutics Inc., priority 2022, dated 2026).

Test system: human PCSK9 locus
Experiment: Secreted PCSK9 by ELISA (normalized to total cell count) in Huh7 cells transfected with mRNA and gRNA
Assay type: cell-based
Settings: paired with LTRP5-ADD-ZIM3 mRNA, Huh7 cells, 6 days post-transfection; for Secreted PCSK9: normalized to total cell count; for Percent reduction in PCSK9 secretion: relative to non-targeting gRNA control; for Average percent reduction in PCSK9 secretion: averaged from the two doses
Protocol: To assess PCSK9 secretion, seeded Huh7 cells were transfected with mRNA encoding a catalytically-active CasX 676, dXR1, or LTRP5-ADD-ZIM3 and a gRNA with scaffold 316 and spacer targeting either the B2M or PCSK9 locus. Media supernatant was harvested at 6, 18, 36, and 87 days post-transfection to assess level of PCSK9 secretion by ELISA. Levels of PCSK9 secretion were normalized to total cell count. As an additional control, PCSK9 secretion was also measured in the media supernatant harvested from wells containing untreated, naïve cells.
The following three human hepatocyte cancer cell lines were used in this experiment: HepG2 cells, Hep3B cells, and Huh7 cells. ˜15,000 cells of each cell line were seeded per well; the next day, seeded cells were transfected with mRNA encoding a catalytically-active CasX 676, dXR1, or LTRP5-ADD-ZIM3 and a gRNA with scaffold 316 and spacer targeting either the B2M or PCSK9 locus (see Table 23 for specific spacers and sequences). Media supernatant was harvested at 4 days post-transfection to assess level of PCSK9 secretion by ELISA, and levels of PCSK9 secretion were normalized to total cell count and illustrated in FIGS. 11A-11C. Culturing of treated Huh7 cells continued, and media supernatant was harvested at 14 and 27 days post-transfection for measuring PCSK9 secretion by ELISA. As an additional experimental control, PCSK9 secretion was also measured in the media supernatant harvested from wells containing untreated, naïve cells.
To assess PCSK9 secretion, seeded Huh7 cells were co-transfected with mRNA encoding for LTRP5-ADD-ZIM3 and a gRNA with scaffold 316 and spacer targeting the PCSK9 locus using Lipofectamine™ 3000. Two doses of total RNA input at a 2:1 mass ratio of mRNA to gRNA were used for screening: 50 ng mRNA: 25 ng gRNA and 25 ng mRNA: 12.5 ng gRNA. Media supernatant was harvested at 6 days post-transfection to assess level of PCSK9 secretion by ELISA (Table 74). Levels of PCSK9 secretion were normalized to total cell count. As an additional control, PCSK9 secretion was also measured in the media supernatant harvested from cells transfected with mRNA encoding for mScarlet.

Row | Substance | Secreted PCSK9 (25 ng mRNA:12.5 ng gRNA) [ng/mL] | Percent reduction in PCSK9 secretion (25 ng mRNA:12.5 ng gRNA) [%] | Secreted PCSK9 (50 ng mRNA:25 ng gRNA) [ng/mL] | Percent reduction in PCSK9 secretion (50 ng mRNA:25 ng gRNA) [%] | Average percent reduction in PCSK9 secretion [%]
1 | CAGUAUCGACAGCCCUUCCA (listed as RNA, chemistry not given here) [spacer 6.124, Promoter] | 30.59 | 57.06 | 16.54 | 79.9 | 68.48
2 | CUCUGCGCGUAAUCUGACGC (listed as RNA, chemistry not given here) [spacer 6.151, Promoter] | 66.42 | 6.77 | 53.44 | 35.05 | 20.91
3 | GUGGGAAGGUUCGCGGGGUU (listed as RNA, chemistry not given here) [spacer 6.168, Intron 1] | 50.96 | 28.47 | 19.1 | 76.78 | 52.62
4 | TG-06-351 (guide UUAUGACACAGAACUCAUGC; listed as RNA, chemistry not given here) | 62.93 | 11.67 | 56.34 | 31.52 | 21.6
5 | UGAACAUGGUGUGUAAAAGG (listed as RNA, chemistry not given here) [spacer 6.131, Promoter] | 57.89 | 18.74 | 28.4 | 65.48 | 42.11
6 | GGAAGGGCUGUCGAUACUGG (listed as RNA, chemistry not given here) [spacer 6.121, Promoter] | 37.13 | 47.89 | 28.33 | 65.57 | 56.73
7 | GCUGAAACAGAUGGAAUACU (listed as RNA, chemistry not given here) [spacer 6.172, Intron 1] | 59.31 | 16.75 | 44.44 | 45.99 | 31.37
8 | TG-06-349 (guide CUGUGCCUGGUGCAGUUCCC; listed as RNA, chemistry not given here) | 87.55 | 22.89 | 91.34 | 11.02 | 16.95
9 | GAGUGAAAUGGCCUGCUCUG (listed as RNA, chemistry not given here) [spacer 6.118, Promoter] | 54.78 | 23.11 | 35.5 | 56.86 | 39.99
10 | UUCCACUGGCCUUAACCUGG (listed as RNA, chemistry not given here) [spacer 6.142, Promoter] | 27.27 | 61.73 | 30.87 | 62.48 | 62.1
11 | AGCCCAGUUAGGAUUUGGGA (listed as RNA, chemistry not given here) [spacer 6.149, Promoter] | 38.33 | 46.21 | 21.18 | 74.26 | 60.23
12 | GAAUUCUAUGGUAGGCACAA (listed as RNA, chemistry not given here) [spacer 6.134, Promoter] | 57.45 | 19.37 | 43.79 | 46.77 | 33.07
13 | UCCCAGUAUCGACAGCCCUU (listed as RNA, chemistry not given here) [spacer 6.123, Promoter] | 51.32 | 27.97 | 30.49 | 62.95 | 45.46
14 | GCCAGGCCGUCCUCCUCGGA (listed as RNA, chemistry not given here) [spacer 6.4, Exon 1] | 73.05 | 2.54 | 54.83 | 33.35 | 15.41
15 | CCUUUGUUUCUUCCCAGUAU (listed as RNA, chemistry not given here) [spacer 6.122, Promoter] | 86.06 | 20.79 | 79.36 | 3.54 | 8.63
16 | GUGUUUCCUGGGUCCACCUU (listed as RNA, chemistry not given here) [spacer 6.147, Promoter] | 37.43 | 47.46 | 53.6 | 34.85 | 41.15
17 | AGAAAGAGCAAGCCUCAUGU (listed as RNA, chemistry not given here) [spacer 6.125, Promoter] | 46.11 | 35.28 | 24.93 | 69.7 | 52.49
18 | GUUAAUGUUUAAUCAGAUAG (listed as RNA, chemistry not given here) [spacer 6.153, Promoter] | 86.58 | 21.52 | 73.23 | 10.99 | 5.27
19 | AAACUUAGCCUGGACCCCCU (listed as RNA, chemistry not given here) [spacer 6.140, Promoter] | 59.94 | 15.87 | 61.68 | 25.04 | 20.45
20 | TG-06-002 (guide ACCGCUGCGCCAAGGUGCGG; listed as RNA, chemistry not given here) | 83.15 | 16.71 | 81.95 | 0.4 | 8.16
21 | AGGAGCAGCUAGUUGGUAAG (listed as RNA, chemistry not given here) [spacer 6.139, Promoter] | 25.45 | 64.28 | 15.03 | 81.73 | 73.01
22 | TG-06-250 (guide GAUUUGGUUUGGAAAACAUG; listed as RNA, chemistry not given here) | 80.42 | 12.87 | 86.92 | 5.64 | 9.26
23 | TG-06-1046 (guide UCUCUUACAUGGGGGGAAAC; listed as RNA, chemistry not given here) | 76.27 | 7.05 | 78.9 | 4.1 | 1.48
24 | TG-06-347 (guide CUCCUUCACCCACCUGUGCC; listed as RNA, chemistry not given here) | 51.83 | 27.24 | 26.55 | 67.73 | 47.49
